We go through four compounds from paper PMC7126309 (Bioorganic & Medicinal Chemistry, 2010).

In the assay the target is SARS-CoV 3CL^pro (Severe acute respiratory syndrome coronavirus, UniProt P0C6X7). The assay is classed as biochemical.

As for `COc1cc(O)c2c(=O)cc(-c3ccc(OC)c(-c4c(O)cc(O)c5c(=O)cc(-c6ccc(O)cc6)oc45)c3)oc2c1` [Compound 11, ginkgetin], the Inhibition type result is recorded as “Noncompetitive (30.2 ± 2.6)”.

Take `O=c1cc(-c2ccc(O)c(-c3c(O)cc(O)c4c(=O)cc(-c5ccc(O)cc5)oc34)c2)oc2cc(O)cc(O)c12` [Compound 9, amentoflavone]: the Inhibition type entry is reported as “Noncompetitive (13.8 ± 1.5)”.

In the case of `COc1ccc(-c2cc(=O)c3c(O)cc(O)cc3o2)cc1-c1c(O)cc(O)c2c(=O)cc(-c3ccc(O)cc3)oc12` [Compound 10, bilobetin], the Inhibition type entry is recorded as “Noncompetitive (80.4 ± 4.0)”.

As for `COc1ccc(-c2cc(=O)c3c(O)cc(O)c(-c4cc(-c5cc(=O)c6c(O)cc(OC)cc6o5)ccc4OC)c3o2)cc1` [Compound 12, sciadopitysin], the Inhibition type result is on record as “Noncompetitive (35.6 ± 1.1)”.
